{"source": "patent US7323601B2", "about": "“Enanitomers of unsaturated alkyllysophosphonocholines and use as anti-neoplastics” (Research Foundation of the City University of New York, priority 2001, dated 2008)", "key": {"[1]": {"tested_on": "WI-38 normal fibroblast cell line", "assay": "Growth inhibition (GI50), WI-38", "type": "cell-based", "conditions": "WI38 normal cell line (human)", "description": "(§1) For growth inhibitory evaluation, five human tumor cell lines (U937; HT29; A549; MCF7; MCF7/ADR) and two normal fibroblast cell lines (NIH-3T3, murine; WI-38, human) were used. For comparison, the activity of free L-ET18OCH3 and D-ET18OCH3 was examined."}, "[2]": {"tested_on": "MCF7/ADR tumor cell line", "assay": "Growth inhibition (GI50), MCF7/ADR", "type": "cell-based, human"}, "[3]": {"tested_on": "SK-N-MC neuroblastoma cell line", "assay": "Proliferation of log-phase cells, SK-N-MC", "type": "cell-based", "conditions": "48 h incubation, 10% FBS-supplemented medium, read-out: IC50 values (drug concentration required to reduce cell growth by 50%)", "description": "(§2) All the cell lines were grown from frozen stocks originally obtained from ATCC. T47D, MDA-MB-468 and MCF-7 (breast cancer cell lines) were grown in DMEM. SK-N-MC and SK-N-SH (neuroblastoma) were grown in minimum essential medium with non-essential amino acids and Earle's balanced salt solution. All media were supplemented with 10% FBS and antibiotics (Ashagbley, A., Samadder, P., Bittman, R., Erukulla, R. K., Byun, H-S., Arthur, G. (I 996) Anticancer Res. 16, 1813-1818).\n(§3) The effect of the ET-16-phosphono-TDBs on cell proliferation was conducted as previously described (Ashagbley, A., Samadder, P., Bittman, R., Erukulla, R. K., Byun, H-S., Arthur, G. (1996) Anticancer Res. 16, 1813-1818; and Lu, X., and Arthur, G. (1992) Cancer Res. 52, 2806-2812). The cells were seeded in 24-well dishes at a density of 20,000 cells/well with 10% FBS-supplemented medium. The cell numbers were monitored daily. […] The cell numbers at the time of addition of the drugs were determined with a Coulter ZM counter. After 48 h incubation, the cell numbers were determined and the increase in cell number over the numbers at the time of the addition of the drugs was determined and expressed as a function of the control cells which received no drug. The viability of the cells was assessed by the ability to exclude trypan blue dye."}, "[4]": {"tested_on": "MCF-7 breast epithelial cancer cell line", "assay": "Proliferation of log-phase cells, MCF-7", "type": "cell-based", "conditions": "48 h incubation, 10% FBS-supplemented medium, read-out: IC50 values (drug concentration required to reduce cell growth by 50%)", "description": "as §2, §3"}, "[5]": {"tested_on": "HT29 tumor cell line", "assay": "Growth inhibition (GI50), HT29", "type": "cell-based, human"}, "[6]": {"tested_on": "NIH-3T3 normal fibroblast cell line", "assay": "Growth inhibition (GI50), NIH-3T3", "type": "cell-based", "conditions": "NIH-3T3 normal cell line (murine)", "description": "as §1"}, "[7]": {"tested_on": "U937 tumor cell line", "assay": "Growth inhibition (GI50), U937", "type": "cell-based, human"}, "[8]": {"tested_on": "MCF7 tumor cell line", "assay": "Growth inhibition (GI50), MCF7", "type": "cell-based, human"}, "[9]": {"tested_on": "A549 tumor cell line", "assay": "Growth inhibition (GI50), A549", "type": "cell-based, human"}, "[10]": {"tested_on": "SK-N-SH neuroblastoma cell line", "assay": "Proliferation of log-phase cells, SK-N-SH", "type": "cell-based", "conditions": "48 h incubation, 10% FBS-supplemented medium, read-out: IC50 values (drug concentration required to reduce cell growth by 50%)", "description": "as §2, §3"}, "[11]": {"tested_on": "MDA-MB-468 breast epithelial cancer cell line", "assay": "Proliferation of log-phase cells, MDA-MB-468", "type": "cell-based", "conditions": "48 h incubation, 10% FBS-supplemented medium, read-out: IC50 values (drug concentration required to reduce cell growth by 50%)", "description": "as §2, §3"}, "[12]": {"tested_on": "normal cell lines as compared to the tumor cell lines", "assay": "Growth inhibition, normal versus tumor cell lines", "type": "cell-based", "conditions": "normal (NIH-3T3, WI-38) versus tumor cell lines", "description": "as §1"}, "[13]": {"tested_on": "T47D breast epithelial cancer cell line", "assay": "Proliferation of log-phase cells, T47D", "type": "cell-based", "conditions": "48 h incubation, 10% FBS-supplemented medium, read-out: IC50 values (drug concentration required to reduce cell growth by 50%)", "description": "as §2, §3"}, "[14]": {"tested_on": "PKB/AKT", "assay": "PKB/AKT phosphorylation in stimulated MCF-7 cells (Western blot)", "type": "cell-based", "conditions": "15 μM preincubation 3 h; insulin- and EGF-stimulated MCF-7 cells", "description": "(§4) Quiescent MCF-7 cells were preincubated with (“+” in FIGS. 6-8) or without (“−” in FIGS. 6-8) 15 μM of the R or S enantiomer of ET-16-phosphono-TDB (TDB-PC in FIGS. 7-9) in DMEM supplemented with BSA (0.5 mg/mL) for 3 h. The cells were washed twice and stimulated with […] growth factor (EGF) or insulin for various periods. At the end of the incubation, the medium was aspirated, and the cells washed with ice-cold PBS and scraped into ice cold buffer comprising 20 mM Tris-HCl (pH 7.4) 2 mM EGTA, 100 mM β-glycerophosphate, 1 mM Na3VO4, aprotinin (10 μg/mL), leupeptin (10 μg/mL), 0.2 mM aininoethylbenzylsulfonyl fluoride, 0.2 mM benzarnidine, 1 mM dithiothreitol, 1% triton-X-100, and 0.5% NP-40). After ultrasonication, the mixture was centrifuged at 100,000×g for 30 min. The cell lysates were flash frozen and stored at −70° C. until required.\n(§5) MAP kinase activity in cell lysates from EGF and insulin-stimulated MCF-7 cells were assessed by Western blot analysis with phospho-specific antibodies according to the instructions provided by the manufacturer (New England Biolabs). PKB/AKT activity in insulin-stimulated MCF-7 cell lysates was also assessed with phospho-specific antibodies by Western blot analysis. Bound antibody was visualized by chemiluminescence using reagents from Boehringer Mannheim and quantitated with a multiimager Fluor S system (BioRad)."}, "[15]": {"tested_on": "MAP kinase", "assay": "MAP kinase phosphorylation in stimulated MCF-7 cells (Western blot)", "type": "cell-based", "conditions": "15 μM preincubation 3 h; insulin- and EGF-stimulated MCF-7 cells", "description": "as §4, §5"}}, "data": [{"smiles": "CCCCCCCCCCCCCCCCOC[C@@H](C=CP(=O)([O-])OCC[N+](C)(C)C)OC", "note": "[(R)-ET-16-phosphono-TDB, 2′-(Trimethylammonio)ethyl 4-(hexadecyloxy)-3-(R)-methoxy-1-butenephosphonate]", "values": [{"measurement": "GI50", "setting": "[1]", "result": 57.5, "unit": "µM"}, {"measurement": "GI50", "setting": "[2]", "result": "> 40", "unit": "µM"}, {"measurement": "IC50", "setting": "[3]", "result": "> 5", "unit": "µM"}, {"measurement": "IC50", "setting": "[4]", "result": 4.1, "unit": "µM"}, {"measurement": "GI50", "setting": "[5]", "result": 5.9, "unit": "µM"}, {"measurement": "GI50", "setting": "[6]", "result": 77.3, "unit": "µM"}, {"measurement": "GI50", "setting": "[7]", "result": 2.2, "unit": "µM"}, {"measurement": "GI50", "setting": "[8]", "result": 35.1, "unit": "µM"}, {"measurement": "GI50", "setting": "[9]", "result": 15.3, "unit": "µM"}, {"measurement": "IC50", "setting": "[10]", "result": 2.5, "unit": "µM"}, {"measurement": "IC50", "setting": "[11]", "result": "> 5", "unit": "µM"}, {"measurement": "selectivity: GI50 values for the normal cell lines as compared to the tumor cell lines", "setting": "[12]", "result": "remarkable selectivity"}, {"measurement": "IC50", "setting": "[13]", "result": "> 5", "unit": "µM"}]}, {"smiles": "CCCCCCCCCCCCCCCCOC[C@H](C=CP(=O)([O-])OCC[N+](C)(C)C)OC", "note": "[(S)-ET-16-phosphono-TDB, 2′-(Trimethylammonio)ethyl 4-(hexadecyloxy)-3-(S)-methoxy-1-butenephosphonate]", "values": [{"measurement": "GI50", "setting": "[1]", "result": 14.4, "unit": "µM"}, {"measurement": "GI50", "setting": "[2]", "result": "> 40", "unit": "µM"}, {"measurement": "IC50", "setting": "[3]", "result": 2.2, "unit": "µM"}, {"measurement": "IC50", "setting": "[4]", "result": 1.9, "unit": "µM"}, {"measurement": "inhibition of phosphorylation of PKB", "setting": "[14]", "result": "to a greater extent than the less active R enantiomer"}, {"measurement": "GI50", "setting": "[5]", "result": 2.8, "unit": "µM"}, {"measurement": "GI50", "setting": "[6]", "result": 66.3, "unit": "µM"}, {"measurement": "GI50", "setting": "[7]", "result": 1.1, "unit": "µM"}, {"measurement": "GI50", "setting": "[8]", "result": 32.4, "unit": "µM"}, {"measurement": "inhibition of phosphorylation of MAP kinase", "setting": "[15]", "result": "to a greater extent than the less active R enantiomer"}, {"measurement": "GI50", "setting": "[9]", "result": 9, "unit": "µM"}, {"measurement": "IC50", "setting": "[10]", "result": 1.8, "unit": "µM"}, {"measurement": "IC50", "setting": "[11]", "result": 4.2, "unit": "µM"}, {"measurement": "selectivity: GI50 values for the normal cell lines as compared to the tumor cell lines", "setting": "[12]", "result": "remarkable selectivity"}, {"measurement": "IC50", "setting": "[13]", "result": 0.9, "unit": "µM"}]}]}
